Data from US20240190880A1 (THE REGENTS OF THE UNIVERSITY OF MICHIGAN, priority 2021, published 2024).

target: T1, ER (Homo sapiens, UniProt P03372); test: ER degradation activity, in-cell western blot analysis in T47D cells; format: cell-based; conditions: compounds 16 hours, Table A does not say whether T47D or MCF7, read-out: Potency (DC50)
T1 construct: host or cells: T47D and MCF7 human breast cancer cells
T1 sequence (P03372 1-595): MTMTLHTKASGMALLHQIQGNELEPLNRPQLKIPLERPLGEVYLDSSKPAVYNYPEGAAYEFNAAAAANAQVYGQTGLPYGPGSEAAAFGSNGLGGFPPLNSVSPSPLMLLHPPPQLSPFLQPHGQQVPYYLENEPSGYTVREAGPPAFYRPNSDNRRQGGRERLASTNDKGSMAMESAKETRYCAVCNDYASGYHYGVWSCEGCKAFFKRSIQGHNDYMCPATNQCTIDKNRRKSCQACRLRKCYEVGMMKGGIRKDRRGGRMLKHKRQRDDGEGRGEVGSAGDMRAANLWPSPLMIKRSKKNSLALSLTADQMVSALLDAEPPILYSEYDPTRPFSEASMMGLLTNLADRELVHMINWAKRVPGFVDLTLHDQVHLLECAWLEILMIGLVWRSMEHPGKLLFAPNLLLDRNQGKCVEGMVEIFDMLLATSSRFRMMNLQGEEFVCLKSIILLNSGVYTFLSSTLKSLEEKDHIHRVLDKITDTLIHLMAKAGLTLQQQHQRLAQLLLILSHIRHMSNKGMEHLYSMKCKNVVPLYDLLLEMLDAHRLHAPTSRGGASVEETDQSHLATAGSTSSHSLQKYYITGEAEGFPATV
Summary of the method: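 ER protein remaining after 16 h compound exposure is quantified in T47D cells by in-cell western, with a no-primary-antibody background control. Values are percentages of DMSO-treated signal.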

DC50 | SMILES
> 100 nM | C[C@@H]1Cc2cc(O)ccc2[C@H](c2c(F)cc(OC3CC4(CCN(C(=O)CN5Cc6cc7c(cc6C5)C(=O)N(C5CCC(=O)NC5=O)C7=O)CC4)C3)cc2F)N1CC(F)F (stereo partly drawn) [E 456, 6-(2-(2-(4-((1R,3R)-2-(2,2-difluoroethyl)-6-hydroxy-3-methyl-1,2,3,4-tetrahydroisoquinolin-1-yl)-3,5-difluorophenoxy)-7-azaspiro[3.5]nonan-7-yl)-2-oxoethyl)-2-(2,6-dioxopiperidin-3-yl)-6,7-dihydropyrrolo[3,4-f]isoindole-1,3(2H,5H)-dione]
10 to 100 nM | C[C@@H]1Cc2cc(O)ccc2[C@@H](c2c(F)cc(C(=O)N3CC4(CCN(C(=O)CN5Cc6cc7c(cc6C5)C(=O)N(C5CCC(=O)NC5=O)C7=O)CC4)C3)cc2F)N1CC(F)F (stereo partly drawn) [E 457, 6-(2-(2-(4-((1S,3R)-2-(2,2-difluoroethyl)-6-hydroxy-3-methyl-1,2,3,4-tetrahydroisoquinolin-1-yl)-3,5-difluorobenzoyl)-2,7-diazaspiro[3.5]nonan-7-yl)-2-oxoethyl)-2-(2,6-dioxopiperidin-3-yl)-6,7-dihydropyrrolo[3,4-f]isoindole-1,3(2H,5H)-dione]
> 100 nM | C[C@@H]1Cc2cc(O)ccc2[C@H](c2c(F)cc(C(=O)N3CC4(CCN(C(=O)CN5Cc6cc7c(cc6C5)C(=O)N(C5CCC(=O)NC5=O)C7=O)CC4)C3)cc2F)N1CC(F)F (stereo partly drawn) [E 458, 6-(2-(2-(4-((1R,3R)-2-(2,2-difluoroethyl)-6-hydroxy-3-methyl-1,2,3,4-tetrahydroisoquinolin-1-yl)-3,5-difluorobenzoyl)-2,7-diazaspiro[3.5]nonan-7-yl)-2-oxoethyl)-2-(2,6-dioxopiperidin-3-yl)-6,7-dihydropyrrolo[3,4-f]isoindole-1,3(2H,5H)-dione]
< 10 nM | C[C@@H]1Cc2cc(O)ccc2[C@@H](c2ccc(C(=O)N3CC4(CCN(C(=O)CN5Cc6cc7c(cc6C5)C(=O)N(C5CCC(=O)NC5=O)C7=O)CC4)C3)cc2)N1CC(F)F (stereo partly drawn) [E 459, 6-(2-(2-(4-((1R,3R)-2-(2,2-difluoroethyl)-6-hydroxy-3-methyl-1,2,3,4-tetrahydroisoquinolin-1-yl)benzoyl)-2,7-diazaspiro[3.5]nonan-7-yl)-2-oxoethyl)-2-(2,6-dioxopiperidin-3-yl)-6,7-dihydropyrrolo[3,4-f]isoindole-1,3(2H,5H)-dione]
10 to 100 nM | C[C@@H]1Cc2cc(O)ccc2[C@H](c2ccc(C(=O)N3CC4(CCN(C(=O)CN5Cc6cc7c(cc6C5)C(=O)N(C5CCC(=O)NC5=O)C7=O)CC4)C3)cc2)N1CC(F)F (stereo partly drawn) [E 460, 6-(2-(2-(4-((1S,3R)-2-(2,2-difluoroethyl)-6-hydroxy-3-methyl-1,2,3,4-tetrahydroisoquinolin-1-yl)benzoyl)-2,7-diazaspiro[3.5]nonan-7-yl)-2-oxoethyl)-2-(2,6-dioxopiperidin-3-yl)-6,7-dihydropyrrolo[3,4-f]isoindole-1,3(2H,5H)-dione]
< 10 nM | COc1c2c(cc3c1CN(C1CCC(=O)NC1=O)C3=O)CN(CC(=O)N1CCC3(CC1)CCN(c1cc(F)c([C@@H]4c5ccc(O)cc5C[C@@H](C)N4CC(F)F)c(F)c1)CC3)C2 (stereo partly drawn) [E 461, 3-(6-(2-(9-(4-((1S,3R)-2-(2,2-difluoroethyl)-6-hydroxy-3-methyl-1,2,3,4-tetrahydroisoquinolin-1-yl)-3,5-difluorophenyl)-3,9-diazaspiro[5.5]undecan-3-yl)-2-oxoethyl)-4-methoxy-1-oxo-3,5,6,7-tetrahydropyrrolo[3,4-f]isoindol-2(1H)-yl)piperidine-2,6-dione]
10 to 100 nM | C[C@@H]1Cc2cc(O)ccc2[C@@H](c2ccc(N3CCC4(CCN(C(=O)CN5Cc6cc7c(cc6C5)C(=O)N(C5CCC(=O)NC5=O)C7=O)CC4)CC3)cc2)N1c1ccc(F)cc1 (stereo partly drawn) [E 462, 2-(2,6-dioxopiperidin-3-yl)-6-(2-(9-(4-((1R,3R)-2-(4-fluorophenyl)-6-hydroxy-3-methyl-1,2,3,4-tetrahydroisoquinolin-1-yl)phenyl)-3,9-diazaspiro[5.5]undecan-3-yl)-2-oxoethyl)-6,7-dihydropyrrolo[3,4-f]isoindole-1,3(2H,5H)-dione]
< 10 nM | C[C@@H]1Cc2cc(O)ccc2[C@@H](c2c(F)cc(N3CCC(C(=O)N4CCC(N5Cc6cc7c(cc6C5)C(=O)N(C5CCC(=O)NC5=O)C7=O)CC4)CC3)cc2F)N1CC(F)F (stereo partly drawn) [E 463, 6-(1-(1-(4-((1S,3R)-2-(2,2-difluoroethyl)-6-hydroxy-3-methyl-1,2,3,4-tetrahydroisoquinolin-1-yl)-3,5-difluorophenyl)piperidine-4-carbonyl)piperidin-4-yl)-2-(2,6-dioxopiperidin-3-yl)-6,7-dihydropyrrolo[3,4-f]isoindole-1,3(2H,5H)-dione]
> 100 nM | C[C@@H]1Cc2cc(O)ccc2[C@@H](c2c(F)cc(C(=O)N3CC4(CCC(CN5Cc6cc7c(cc6C5)C(=O)N(C5CCC(=O)NC5=O)C7=O)CC4)C3)cc2F)N1CC(F)F (stereo partly drawn) [E 464, 6-((2-(4-((1S,3R)-2-(2,2-difluoroethyl)-6-hydroxy-3-methyl-1,2,3,4-tetrahydroisoquinolin-1-yl)-3,5-difluorobenzoyl)-2-azaspiro[3.5]nonan-7-yl)methyl)-2-(2,6-dioxopiperidin-3-yl)-6,7-dihydropyrrolo[3,4-f]isoindole-1,3(2H,5H)-dione]
> 100 nM | C[C@@H]1Cc2cc(O)ccc2[C@@H](c2c(F)cc(C(=O)N3CCC4(CC3)CC(CN3Cc5cc6c(cc5C3)C(=O)N(C3CCC(=O)NC3=O)C6=O)C4)cc2F)N1CC(F)F (stereo partly drawn) [E 465, 6-((7-(4-((1S,3R)-2-(2,2-difluoroethyl)-6-hydroxy-3-methyl-1,2,3,4-tetrahydroisoquinolin-1-yl)-3,5-difluorobenzoyl)-7-azaspiro[3.5]nonan-2-yl)methyl)-2-(2,6-dioxopiperidin-3-yl)-6,7-dihydropyrrolo[3,4-f]isoindole-1,3(2H,5H)-dione]
> 100 nM | C[C@@H]1Cc2cc(O)ccc2[C@@H](c2c(F)cc(N3CCC(CN4CCC(N5Cc6cc7c(cc6C5)C(=O)N(C5CCC(=O)NC5=O)C7=O)CC4)CC3)cc2F)N1CC(F)F (stereo partly drawn) [E 466, 6-(1-((1-(4-((1S,3R)-2-(2,2-difluoroethyl)-6-hydroxy-3-methyl-1,2,3,4-tetrahydroisoquinolin-1-yl)-3,5-difluorophenyl)piperidin-4-yl)methyl)piperidin-4-yl)-2-(2,6-dioxopiperidin-3-yl)-6,7-dihydropyrrolo[3,4-f]isoindole-1,3(2H,5H)-dione]
10 to 100 nM | C[C@@H]1Cc2c(ccc3[nH]ncc23)[C@@H](c2c(F)cc(N3CCC(C(=O)N4C5CCC4CC(N4Cc6cc7c(cc6C4)C(=O)N(C4CCC(=O)NC4=O)C7=O)C5)CC3)cc2F)N1CC(F)F (stereo partly shown) [E 469]
10 to 100 nM | C[C@@H]1Cc2c([nH]c3ccccc23)[C@@H](c2cnc(N3CC4(CCC(CN5Cc6cc7c(cc6C5)C(=O)N(C5CCC(=O)NC5=O)C7=O)CC4)C3)nc2)N1CC(C)(C)F (stereo partly drawn) [E 471, 2-(2,6-dioxopiperidin-3-yl)-6-((2-(5-((1R,3R)-2-(2-fluoro-2-methylpropyl)-3-methyl-2,3,4,9-tetrahydro-1H-pyrido[3,4-b]indol-1-yl)pyrimidin-2-yl)-2-azaspiro[3.5]nonan-7-yl)methyl)-6,7-dihydropyrrolo[3,4-f]isoindole-1,3(2H,5H)-dione]
